Reference: ChEMBL document CHEMBL1201862, “PubChem BioAssay data set” (2004)
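Growth conditions: 96-well plates. Treatment: test compound, 48 hours, 5 concentrations. Analysis: linear interpolation between bracketing concentrations; unreached endpoints set to highest concentration. Abbreviation: GI50, concentration required for 50% inhibition of growth.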 The source made the active and inactive calls. Cut-off read from the data, not from the text of the source: active = GI50 up to about 1.1 µM and inactive = higher.

What was measured:
Experiment in all cases: DTP human tumour cell line panel, 48 h
DU-145 = test system: DU-145
SF-295 = test system: SF-295
UO-31 = test system: UO-31
HOP-62 = test system: HOP-62
NCI-H522 = test system: NCI-H522
BT-549 = test system: BT-549
Malme-3M = test system: Malme-3M
OVCAR-5 = test system: OVCAR-5
HCT-116 = test system: HCT-116
T47D = test system: T47D
HCC 2998 = test system: HCC 2998
SF-539 = test system: SF-539
SK-OV-3 = test system: SK-OV-3
UACC-62 = test system: UACC-62
OVCAR-4 = test system: OVCAR-4
SN12C = test system: SN12C
CCRF-CEM = test system: CCRF-CEM
M14 = test system: M14
PC-3 = test system: PC-3
KM12 = test system: KM12

SMILES	GI50 (DU-145)	GI50 (SF-295)	GI50 (UO-31)	GI50 (HOP-62)	GI50 (NCI-H522)	GI50 (BT-549)	GI50 (Malme-3M)	GI50 (OVCAR-5)	GI50 (HCT-116)	GI50 (T47D)	GI50 (HCC 2998)	GI50 (SF-539)	GI50 (SK-OV-3)	GI50 (UACC-62)	GI50 (OVCAR-4)	GI50 (SN12C)	GI50 (CCRF-CEM)	GI50 (M14)	GI50 (PC-3)	GI50 (KM12)
CC(C)=CCC[C@](C)(O)[C@H]1CC[C@]2(C)[C@@H]1[C@H](O)C[C@@H]1[C@@]3(C)CC[C@H](O[C@@H]4O[C@H](CO)[C@@H](O)[C@H](O)[C@H]4O)C(C)(C)[C@@H]3CC[C@]12C [GINSENOSIDE RH2]	19.5 µM (inactive)	23 µM (inactive)	17.4 µM (inactive)	32.6 µM (inactive)	17.2 µM (inactive)	18 µM (inactive)	18.4 µM (inactive)	26.2 µM (inactive)	26.2 µM (inactive)	18.2 µM (inactive)	27.9 µM (inactive)	22.2 µM (inactive)	18.5 µM (inactive)	16.6 µM (inactive)	21.5 µM (inactive)	16.7 µM (inactive)	23.5 µM (inactive)	27.2 µM (inactive)	17.6 µM (inactive)	17.6 µM (inactive)
O=c1oc2cc(/N=C/c3ccccc3Cl)ccc2c2ccccc12	> 100 µM (inactive)	> 100 µM (inactive)	40.1 µM (inactive)	> 100 µM (inactive)	> 100 µM (inactive)	> 100 µM (inactive)	> 100 µM (inactive)	> 100 µM (inactive)	71.3 µM (inactive)	> 100 µM (inactive)	> 100 µM (inactive)	> 100 µM (inactive)		40.7 µM (inactive)	> 100 µM (inactive)	> 100 µM (inactive)	> 100 µM (inactive)	> 100 µM (inactive)	98.6 µM (inactive)	> 100 µM (inactive)
COc1cc2c(c(OC)c1OC)-c1ccc(SC)c(=O)cc1[C@@H](OC(=O)c1ccncc1)CC2	< 0.01 µM (active)	< 0.01 µM (active)	< 0.01 µM (active)		< 0.01 µM (active)	< 0.01 µM (active)	< 0.01 µM (active)	< 0.01 µM (active)	< 0.01 µM (active)	> 61.7 µM (inactive)	< 0.01 µM (active)	< 0.01 µM (active)	0.0165 µM (active)	< 0.01 µM (active)	27 µM (inactive)		< 0.01 µM (active)	< 0.01 µM (active)	< 0.01 µM (active)	< 0.01 µM (active)
CCN(C(=O)N[C@@H](Cc1ccccc1)C(=O)N[C@@H](CC(C)C)C(=O)OC)c1ccccc1	17.3 µM (inactive)	26.5 µM (inactive)	18.1 µM (inactive)	34.4 µM (inactive)	9.55 µM (inactive)	57.1 µM (inactive)		23.2 µM (inactive)	20.2 µM (inactive)	77.6 µM (inactive)	30.8 µM (inactive)	19.5 µM (inactive)	40.6 µM (inactive)	17.7 µM (inactive)	28.1 µM (inactive)	16 µM (inactive)	19.3 µM (inactive)	8.24 µM (inactive)	35.1 µM (inactive)	29.4 µM (inactive)
CCOC(=O)c1cc(C2(O)CCN(CC(C)CC)C2=O)c(-c2cc(C)no2)[nH]1 (centres undefined)	> 100 µM (inactive)	> 100 µM (inactive)	> 100 µM (inactive)	> 100 µM (inactive)		> 100 µM (inactive)	> 100 µM (inactive)	> 100 µM (inactive)	> 100 µM (inactive)	> 100 µM (inactive)	> 100 µM (inactive)	> 100 µM (inactive)	> 100 µM (inactive)	> 100 µM (inactive)	> 100 µM (inactive)	> 100 µM (inactive)	> 100 µM (inactive)	> 100 µM (inactive)	> 100 µM (inactive)	> 100 µM (inactive)
O=S(=O)(c1ccc2ccccc2c1)N1CCN(S(=O)(=O)c2ccc3ccccc3c2)CC1	> 100 µM (inactive)	> 100 µM (inactive)	> 100 µM (inactive)	33.5 µM (inactive)	> 100 µM (inactive)	> 100 µM (inactive)	> 100 µM (inactive)	> 100 µM (inactive)	> 100 µM (inactive)	> 100 µM (inactive)	> 100 µM (inactive)		51.3 µM (inactive)	> 100 µM (inactive)	> 100 µM (inactive)	> 100 µM (inactive)	> 100 µM (inactive)	> 100 µM (inactive)	> 100 µM (inactive)	> 100 µM (inactive)
Oc1cc(N2CCCC2)ccc1/C=N/N1C(=S)N(c2ccccc2)C(=N\c2ccccc2)/C1=N/c1ccccc1	> 100 µM (inactive)	94.4 µM (inactive)	> 100 µM (inactive)	35.2 µM (inactive)	23.4 µM (inactive)	> 100 µM (inactive)	> 100 µM (inactive)	> 100 µM (inactive)	44.6 µM (inactive)	> 100 µM (inactive)	> 100 µM (inactive)	> 100 µM (inactive)	99.8 µM (inactive)	97.7 µM (inactive)		> 100 µM (inactive)		34.2 µM (inactive)	> 100 µM (inactive)	> 100 µM (inactive)
COC(=O)C1CCN(C(=O)OC(C)(C)C)CC1	> 100 µM (inactive)	> 100 µM (inactive)	> 100 µM (inactive)	> 100 µM (inactive)	> 100 µM (inactive)	0.993 µM (active)	> 100 µM (inactive)	> 100 µM (inactive)	> 100 µM (inactive)	> 100 µM (inactive)	> 100 µM (inactive)	> 100 µM (inactive)		> 100 µM (inactive)	> 100 µM (inactive)	> 100 µM (inactive)	> 100 µM (inactive)	> 100 µM (inactive)	> 100 µM (inactive)	> 100 µM (inactive)
Cc1cc(-c2nc3cc(F)ccc3s2)ccc1N	56 µM (inactive)	14.8 µM (inactive)	4.06 µM (inactive)	15.2 µM (inactive)	16.9 µM (inactive)	> 48 µM (inactive)	40.8 µM (inactive)	0.794 µM (active)	21.1 µM (inactive)	< 0.01 µM (active)	< 0.01 µM (active)	20.4 µM (inactive)	88.5 µM (inactive)	39.7 µM (inactive)		31 µM (inactive)	1.95 µM (inactive)	39.2 µM (inactive)	17 µM (inactive)	42.8 µM (inactive)
CC(O)C1CC1(CO)CNc1cc(Cl)nc(N)n1 (centres undefined)	> 100 µM (inactive)	> 100 µM (inactive)	> 100 µM (inactive)	> 100 µM (inactive)	> 100 µM (inactive)	> 100 µM (inactive)	> 100 µM (inactive)	> 100 µM (inactive)	> 100 µM (inactive)	> 100 µM (inactive)	> 100 µM (inactive)	> 100 µM (inactive)	> 100 µM (inactive)	> 10 µM (inactive)	> 100 µM (inactive)	> 100 µM (inactive)	> 100 µM (inactive)		> 100 µM (inactive)	> 100 µM (inactive)
O=C(NCCCN1CCN(CCCNC(=O)Nc2cccc3ccccc23)CC1)Nc1cccc2ccccc12	16.9 µM (inactive)	13.9 µM (inactive)	16.6 µM (inactive)	11.7 µM (inactive)	15.8 µM (inactive)	13.2 µM (inactive)	3.15 µM (inactive)	15.1 µM (inactive)	14.4 µM (inactive)	13.2 µM (inactive)	2.29 µM (inactive)	18 µM (inactive)		3.33 µM (inactive)	25.4 µM (inactive)	16.3 µM (inactive)	22.2 µM (inactive)	16.3 µM (inactive)	9.93 µM (inactive)	19.3 µM (inactive)
CN(C)CCNC(=O)c1cccc2[nH]c(-c3ccncc3)nc12	7.76 µM (inactive)	3.02 µM (inactive)	2.77 µM (inactive)	18.7 µM (inactive)	1.88 µM (inactive)	11.4 µM (inactive)	1.91 µM (inactive)	10.1 µM (inactive)	4.07 µM (inactive)	12.7 µM (inactive)	1.95 µM (inactive)	2.65 µM (inactive)		2.96 µM (inactive)	9.29 µM (inactive)	9.73 µM (inactive)	2.29 µM (inactive)	1.82 µM (inactive)	3.83 µM (inactive)	4.17 µM (inactive)
COc1ccc2c(c1)CCN1CCCc3ccccc3C21 (centres undefined)	> 100 µM (inactive)	26.4 µM (inactive)	29.4 µM (inactive)	69.2 µM (inactive)	34.4 µM (inactive)	28.1 µM (inactive)		42.9 µM (inactive)	30.9 µM (inactive)	45.1 µM (inactive)	23 µM (inactive)	17.5 µM (inactive)	46.3 µM (inactive)	31 µM (inactive)	> 100 µM (inactive)	42.7 µM (inactive)	37.5 µM (inactive)	15.9 µM (inactive)	36.9 µM (inactive)	33.7 µM (inactive)
O=c1oc2c/c(=C\c3ccccc3)c(=O)c3cccc1c3-2	51.1 µM (inactive)	> 100 µM (inactive)	30.1 µM (inactive)	19.9 µM (inactive)	22.8 µM (inactive)	28.3 µM (inactive)	24.2 µM (inactive)	61.7 µM (inactive)	25.7 µM (inactive)	27.3 µM (inactive)	> 100 µM (inactive)	31.5 µM (inactive)	> 100 µM (inactive)	24.5 µM (inactive)		47.6 µM (inactive)		22.4 µM (inactive)	56 µM (inactive)	24.9 µM (inactive)
